Test results taken from patent US20060165642A1, “Hair treatment compositions” (priority 2002, published 2006).

Experiment: cuticle abrasion test
Conditions: for % recovery: freeze-dried cuticle abraded from 4 g hair washed twice with base shampoo containing 0.03M of the compound, lower is better; for performance in cuticle abrasion test versus comparative Examples: base shampoo containing 0.03M of the compound
Description: The compositions were tested in a cuticle abrasion test. Root end hair (as received from the supplier) was pre-cleaned by washing for 1 minute in Composition I followed by copious rinsing in double deionised water. The hair was left to dry naturally over 24 hrs.
For each test, 4 g of hair was washed in 0.4 g of the test composition for 30 seconds, rinsed for 30 seconds, and the washing/rinsing cycle repeated. The hair was left to dry naturally overnight.
The hair was cut into 1 cm lengths, placed in a blender bucket and 200 ml of double de-ionised water was added. The blender was placed on full power for 1 minute. The liquor was decanted off and transferred to a 50 ml centrifuge tube and centrifuged for 10 minutes at 4,300 RPM. The resulting clear liquor was decanted off leaving the cuticle sediment at the bottom of the tube.
The cuticle was transferred from the tube into a beaker with 3×5 ml washes and passed through a series of sieves (425 and 53 microns). The sieves were washed with a further 2×10 ml of water to ensure complete recovery of the cuticle. The sample was made up to 50 ml in a centrifuge tube, centrifuged for 15 minutes and the liquor decanted off. The cuticle was transferred with double deionised water (2×10 ml washes) to a beaker and freeze-dried.
The freeze-dried cuticle was weighed back to determine percentage recovery.

SMILES | % recovery [%] | performance in cuticle abrasion test versus comparative Examples
CC(O)CC(C)(C)O (centres unmarked) [Compound B, 2-methyl-2,4 pentanediol, reference compound] | 0.50 | 
CC(C)(C)C(O)CO (centres unmarked) [Compound 2, 3,3-dimethyl-1,2-butanediol] | 0.27 | perform better than comparative Examples A and B
CC(C)(C)CCO [Compound 1, 3,3-dimethylbutan-1-ol] | 0.31 | perform better than comparative Examples A and B
